The text below walks through data of patent publication US20230210110A1, “METHOD FOR INDUCING ENVIRONMENTAL STRESS TOLERANCE IN PLANTS” (AJINOMOTO CO., INC., priority 2020, published 2023).

The test system of the assay is RD29B and MAPKKK18. Description: Effect of Lys derivatives and nitrogen-containing compounds on induction of environmental stress tolerance genes by ABA (activity level). The assay is classed as in vivo, Arabidopsis thaliana. Conditions: for Activity level: total of induction activities of RD29B and MAPKKK18 with 1 mM compound and 0.25 μM ABA, relative to ABA alone taken as 1, >1 enhanced, 1 no effect, <1 suppressed; for effect on the gene expression inducing activity of ABA: 1 mM compound with 0.25 μM ABA. How it is done:
Four to six young Arabidopsis thaliana plants grown on a 50% concentration MS (Murashige-Skoog) agar medium were transferred to a 6-well plate containing a 50% concentration MS (Murashige-Skoog) liquid medium and pre-cultured for 16 hours, then added with a treatment solution containing each amino acid alone or a treatment solution containing a combination of each amino acid and ABA, and left for 6 hours. Then, RNA was then isolated from the plants with a nucleic acid purification kit (Promega, Maxwell (registered trademark) 16 LEV simplyRNA Tissue Kit). Then, cDNA was synthesized with a cDNA synthesis reagent for real-time PCR (Toyobo, ReverTra Ace (registered trademark) qPCR RT Master Mix).
GAPDH is a glyceraldehyde-3-phosphate dehydrogenase gene and was selected as an internal standard.
Lys or each Lys derivative is used for treatment at 1 mM and ABA at 0.25 μM.

As for `O=C(NCCCCCNC(=O)c1ccccc1)c1ccccc1` [II-2], the Activity level is listed as more than 1. As to `O=C(NCCC[C@H](NC(=O)c1ccccc1)C(=O)O)c1ccccc1` [compound 6], the Activity level is reported as more than 1.

In the case of `COC(=O)[C@@H](N)CCCCN` [compound 7], the “effect on the gene expression inducing activity of ABA” value (shortened to “effect”) is on record as “no effect” and the Activity level was determined as 1. As for `CC(=O)NCCCC[C@H](N)C(=O)O` [compound 8], the Activity level was less than 1. As for `N[C@@H](CCCCNC(=O)c1ccccc1)C(=O)O` [compound 9], the Activity level is given as less than 1. Still for that read-out and setting: for `N[C@H](CCCCNC(=O)c1ccccc1)C(=O)O` [compound 10] the value was less than 1. For the molecule `N[C@@H](CCCCNC(=O)OCc1ccccc1)C(=O)O` [compound 11], the “effect” value is listed as “no effect” and the Activity level was 1. Turning to `CC(C)(C)OC(=O)NCCCC[C@H](N)C(=O)O` [compound 12], the Activity level is reported as more than 1.

As to `N[C@H](CCCCNC(=O)OCc1ccccc1)C(=O)O` [compound 13], the Activity level was less than 1. As to `CN(C)CCCC[C@H](N)C(=O)O` [compound 14], the Activity level was more than 1. Same read-out and setting: to `CC(=O)N[C@@H](CCCCN)C(=O)O` [compound 15] belongs less than 1; to `NCCCC[C@H](NC(=O)/C=C/c1ccccc1)C(=O)O` [compound 16], less than 1.

In the case of `NCCCC[C@H](NC(=O)OCc1ccccc1)C(=O)O` [compound 17], the Activity level is given as more than 1.

As to `O=C(NCCC[C@H](NC(=O)OCc1ccccc1)C(=O)O)OCc1ccccc1` [compound 18], the Activity level is reported as more than 1. Same read-out and setting: for `CC(C)(C)OC(=O)NC[C@H](NC(=O)OCc1ccccc1)C(=O)O` [compound 19] the value was more than 1. Regarding `CC(C)(C)OC(=O)NCC[C@H](NC(=O)OCc1ccccc1)C(=O)O` [compound 20], the Activity level is more than 1. On to `CCC(C)C(=O)C(=O)N[C@@H](CCCCNC(=N)N)C(=O)O` (stereo partly shown) [compound 21], for which the Activity level is less than 1. Consider `COC(=O)[C@H](CCCCN)NC(=O)OCc1ccccc1` [compound 22], for which the Activity level was more than 1. In the case of `NCCCC[C@H](NC(=O)OCc1ccccc1)C(=O)OCc1ccccc1` [compound 23], the Activity level is less than 1. Take `COC(=O)[C@@H](N)CCCCNC(=O)OCc1ccccc1` [compound 24]: the Activity level was more than 1. For `CC(C)(C)OC(=O)[C@@H](N)CCCCNC(=O)OCc1ccccc1` [compound 25], the “effect” value was “no effect” and the Activity level came out at 1. Regarding `N[C@@H](CCCCNC(=O)OCc1ccccc1)C(=O)OCc1ccccc1` [compound 26], the Activity level was less than 1.

Turning to `COC(=O)[C@@H](N)CCCCNC(=O)OC(C)(C)C` [compound 27], the Activity level was more than 1. `CC(C)(C)OC(=O)NCCCC[C@H](N)C(=O)OC(C)(C)C` [compound 28]: the “effect” value is listed as “no effect” and the Activity level was found to be 1.

As to `COC(=O)[C@H](CCCCNC(=O)OC(C)(C)C)NC(=O)OCc1ccccc1` [compound 29], the Activity level is reported as more than 1. As to `O=C(NCCCC[C@H](NC(=O)c1ccccc1)C(=O)O)c1ccccc1` [compound 30], the Activity level is reported as less than 1. Same read-out and setting: for `CC(C)(C)OC(=O)N[C@@H](CCCCNC(=O)OCc1ccccc1)C(=O)O` [compound 31] the value was more than 1. In the case of `CC(C)(C)OC(=O)NCCCC[C@H](NC(=O)OCc1ccccc1)C(=O)O` [compound 32], the Activity level is listed as more than 1. Consider `O=C(NCCCC[C@H](NC(=O)OCc1ccccc1)C(=O)O)OCc1ccccc1` [compound 33], for which the Activity level was more than 1. With `O=C(NCCCC[C@@H](NC(=O)OCc1ccccc1)C(=O)O)OCc1ccccc1` [compound 34], the Activity level is reported as more than 1. As to `O=C(N[C@@H](CCCCNC(=O)c1ccccc1)C(=O)O)OCc1ccccc1` [compound 35], the Activity level is more than 1.

As for `CC(C)(C)OC(=O)N[C@@H](CCCCNC(=O)OCc1cccc(Cl)c1)C(=O)O` [compound 36], the Activity level is reported as more than 1.

As to `CC(C)(C)OC(=O)NCCCC[C@H](NC(=O)OC(C)(C)C)C(=O)O` [compound 37], the Activity level is more than 1. The same measure, in the same setting: for `CC(C)(C)OC(=O)N[C@@H](CCCCNC(=O)OC(F)(F)F)C(=O)O` [compound 38] the value was more than 1; for `CC(C)(C)OC(=O)NCCCC[C@H](NC(=O)OCC1c2ccccc2-c2ccccc21)C(=O)O` [compound 39], less than 1. Still for that read-out and setting: to `CC(C)(C)OC(=O)N[C@@H](CCCCNC(=O)OCC1c2ccccc2-c2ccccc21)C(=O)O` [compound 40] belongs more than 1. Same read-out and setting: for `O=C(NCCCC[C@H](NC(=O)OCc1ccccc1)C(=O)O)OCC1c2ccccc2-c2ccccc21` [compound 41] the value was less than 1; for `O=C(NCCCC[C@H](NC(=O)OCC1c2ccccc2-c2ccccc21)C(=O)O)OCC1c2ccccc2-c2ccccc21` [compound 42], more than 1. `Cc1ccc(C(NCCCC[C@H](NC(=O)OCC2c3ccccc3-c3ccccc32)C(=O)O)(c2ccccc2)c2ccccc2)cc1` [compound 43]: the Activity level is more than 1.

`Cc1cccc(OCC(=O)NCCCC[C@H](NC(=O)COc2cccc(C)c2)C(=O)O)c1` [compound 44]: the Activity level was more than 1.

For `O=C(O)[C@H](CCCCN1C(=O)c2ccccc2C1=O)N1C(=O)c2ccccc2C1=O` [compound 45], the Activity level is recorded as more than 1. Still for that read-out and setting: for `Cn1c(=O)n(CCCC[C@H](NC(=O)c2c(Cl)cccc2Cl)C(=O)O)c(=O)c2ccccc21` [compound 46] the value was more than 1.
